Measurements taken from US8114393B2, “Methods and compositions for phosphate binding” (Wisconsin Alumni Research Foundation, priority 2005, dated 2012).

Columns and labels:
[1] = tested on: intestinal phosphorus absorption; experiment: Fecal phosphorus content, increasing dietary levels of DAB-8 hydroacetate for three weeks; type: in vivo, rats
From the text: Materials and Methods. Young male Sprague-Dawley rats weighing approximately 90 g were fed a purified diet containing 0.47% calcium and 0.2% inorganic phosphorus, solidified with molten agar, for 5 days. After this acclimation period, the rats were divided into 5 groups by body weight. One group remained on the control diet while the other 4 groups were fed diets containing increasing levels of DAB-8 in the hydroacetate salt form (0.09 to 0.7%). After 1, 2 and 3 weeks on the diets, the rats were moved to metabolic caging and 24 to 48 hour fecal collections were obtained. The feces were dried then ashed in a muffle oven at 700° C. for 24 hours. The resulting ash was dissolved in 6N HCl and the phosphorus content was measured using an in-house colorimetric assay.
Data are expressed as means±SEM. Data were subjected to analysis of variance (ANOVA), and group means compared using Tukey, Scheffe and Fisher's LSD test.
Young rats were either control diet (“0”), or the same diet containing one of four levels of DAB-8 as the hydroacetate for three weeks. Feces were collected from the rats using metabolic housing for 24 to 48 hours at the end of the first (week 1), second (week 2) or third (week 3) weeks. Feces was dried, then ashed in a muffle oven. Resulting ash was dissolved in 6N HCl. Phosphorus content was determined using an in-house colorimetric assay. *Indicates significant difference from control diet with a p-value of […].

[2] = tested on: Intestinal Phosphate Absorption; experiment: Intestinal phosphate absorption: oral 33P dose after gavage of phosphate binder; type: in vivo, rats; conditions: 14.4 mg Renagel or 10 mg DAB-8 as acetate or citrate; 10 mM KH2PO4; 60 min
Description: Animals. Male Sprague-Dawley rats (Harlan Sprague-Dawley, Madison, Wis.) weighing approximately 120 grams were used in all experiments.
In experiments to measure ^33P absorption, the rats were fed a laboratory chow diet (Lab Diet 5012, Richmond, Ind.) containing 1% calcium and 0.7% phosphorus ad libitum for less than one week prior to the experiment.
Intestinal Phosphate Absorption. Following an overnight fast, rats were administered 0.5 mL water or an oral phosphate binder dissolved in water via gastric gavage. A second dose of 0.5 mL containing 3 μCi ^33P (as H3PO4, specific activity 155.8 Ci/mg, New England Nuclear/Perkin Elmer, Boston, Mass.) in a 10, 50, or 100 mM KH2PO4 buffer at pH 7.4 was immediately administered via gastric gavage. Rats were killed by CO2 asphyxiation immediately or 60 minutes after the oral dose. The rats killed immediately (labeled “0 min control” in figures) were used to determine if the oral ^33P dose was properly administered and completely recovered.
Blood was collected via heart puncture and centrifuged at 1500×g for 15 minutes at 22° C. to yield serum. A suture was tied to the cranial end of the esophagus to contain liquid inside the stomach. The entire digestive tract was then removed and allowed to dissolve for several days in concentrated HNO3 (approximately 1 mL HNO3 per gram tissue). The exact volume of the dissolved digestive tract was determined by diluting the dissolved tissues to equal volumes with water.
The amount of radioactivity in total body serum and total volume of dissolved tissue was determined following liquid scintillation counting of 50 μL aliquots in triplicate (Tri-Carb Liquid Scintillation Analyzer, Perkin-Elmer/Packard, Boston, Mass.). Total body serum was estimated to be 40 mL serum/kg body weight. (Hawk T et al., 1999, Formulary for laboratory animals, Ames, Iowa: Iowa State University Press.)
Statistical analysis. Data are presented as means±standard error of the means (SEM). Treatment groups were compared by a fully factorial analysis of variance (ANOVA) and means were subjected to Tukey, Scheffe, and Fisher's Least-Significant-Difference (LSD) tests (Systat 5.2.1, Systat Software, Inc., Point Richmond, Calif.). Differences were considered significant if at least two of the tests detected significance with a p-value <0.05, unless specified otherwise.
Materials and Methods. The relevant materials and methods were the same as set forth above except that instead of using “0.5 mL of water or 39.5 mg calcium acetate, 14.4 mg RENAGEL, or up to 132.8 mg of test dendrimer,” the following was used “0.5 mL of water, 14.4 mg RENAGEL or 10 mg DAB-8 as the hydroacetate or hydrocitrate form dissolved in water.”

## Polypropylenimine octaamine Dendrimer decahydroacetate [DAB-8 as acetate]
[1]; all four levels of the phosphate binder (0.09 to 0.7%)
  fecal phosphorus content versus control diet, first 2 weeks on the diet: significant increase
[1]; daily consumption, 0.09 to 0.7% of diet
  fecal phosphorus output: dose-dependent increase
[1]; inferred from fecal phosphorus, 0.09 to 0.7% of diet
  dietary phosphorus absorption in vivo: dose-dependent reduction
[1]; only the highest dietary level
  fecal phosphorus content versus control diet, week 3: retains significance
[2]
  33P in the serum compared with vehicle pretreatment (FIG. 26): significantly less
  33P retained in the gut compared with vehicle pretreatment (FIG. 25): significantly more
